{
  "source": "paper PMC10574532",
  "about": "“Revisiting Supersaturation of a Biopharmaceutical Classification System IIB Drug: Evaluation via a Multi-Cup Dissolution Approach and Molecular Dynamic Simulation” (Molecules, 2023)",
  "key": {"[1]": {"test": "Supersaturation-precipitation and absorption in the dynamic gastrointestinal model (DGIM)", "format": "physicochemical", "method": "The DGIM is achieved through a system consisting of 3 dissolution cups, which represent stomach, duodenum, and jejunum, respectively, filled with corresponding biorelevant fluid. N-octanol serves as the absorptive phase. The pumps facilitate fluid transfer, as depicted by arrows in Figure 9. In situ drug concentration is determined using fiber optical probes, and dynamic pH value of the aqueous fluid is monitored by pH electrodes. The parameters of DGIM can be adjusted to meet some special physiological conditions.\nIn this study, most of the parameters were based on the GIS proposed by Hens et al.. The pH values in the three cups were adjusted to 2.0, 5.9, and 6.1, respectively, to simulate the physiological digestive fluid in the stomach, duodenum, and jejunum of the fasted rats. […] The secretions used were biorelevant fluids that had been concentrated four times and pumped at a rate of 1 mL/min. Considering an average gastric half-emptying time ( th ) of approximately eight minutes, pump A transported gastric fluid into the duodenal cup at this first-order rate. Ensuring that the volume of biorelevant fluid in the duodenal cup was maintained at a constant level of 50 mL, any excess fluid was transported to the jejunal cup through pump B. Therefore, we can represent the rates va for pump A and vb for pump B at time t using following equations:(5) va=ln2×Vg,0×exp−ln2×t/th+1 (6) vb=va+1\nThe pump rate was regulated by a mono-chip computer, which was programmed to dynamically adjust the rate every second in accordance with first-order kinetics. […] The pumps worked until 40 min because, at that time, the solution in the gastric cup was less than 10 mL. However, the experiment continued for 3 h. The paddles were stirred at a rate of 50 rpm. All the cups were in a water bath at 37 °C.\nFiber optic probes with a 1 mm tip were connected to the instrument and employed for the detection of the 270–275 nm wavelength band. This detection specifically targeted the area under the curve (AUC) of the second derivatized absorbance curves. Calibration was performed using the accumulated addition method. The standard curves encompassed a wide concentration range in the dissolution process while ensuring linearity with an r^2 > 0.999."}, "[2]": {"conditions": "phosphate buffer ref 19; cited from earlier work"}, "[3]": {"test": "IVIVC prediction based on DGIM in vitro absorption data", "parameters": "species or system Male Sprague Dawley rats", "conditions": "predicted through IVIVC from DGIM", "method": "(§1) The in vitro–in vivo correlation (IVIVC) was performed using Phoenix 8.1 IVIVC Toolkit (Certara, Princeton, NJ, USA). […] Double Weibull Dissolution Model was selected for fitting both dissolution data from the absorptive phase of DGIM and USP II. The absorption data were obtained via deconvolution analysis of the drug plasma concentration–time curves. The reference formulation for deconvolution to estimate oral absorption was based on the in vivo data of the i.v. group. Additionally, both control group and PVPVA group’s in vitro data were used to establish a correlation between dissolved fraction and absorbed fraction, while the HPMC group’s data served as external validation. The maximum number of unit impulse response exponentials defaulted to three. With WinNonlin Generated Initial Parameter and Winnonlin Bounds, the best correlation model was selected according to the lowest AIC. Validation parameters included AUClast calculated with linear trapezoidal method along with linear interpolation averaging as mean values were adopted. The process of prediction followed the same parameters above. The prediction error (PE) was evaluated following the FDA’s guidance."}, "[4]": {"test": "pH-dependent equilibrium solubility of ketoconazole in biorelevant fluids (FaSSIF) with or without precipitation inhibitor", "format": "physicochemical", "conditions": "modified Henderson-Hasselbalch fit, 37 °C", "method": "Specifically, FaSSIF was prepared with different proportions of 0.2 mol/L disodium hydrogen phosphate (Na2HPO4) solution and 0.1 mol/L citric acid (C6H8O7) solution, with commercial standard FaSSIF powder. […] The final pH of each solution was measured before centrifugation at 10,000× g for 10 min at 37 °C. […] A sample volume of 10 μL was injected and subsequently separated on a Kromasil C18 column (5 μm, 4.6 × 250 mm) maintained at a temperature of 30 °C. The mobile phase consisted of a modified phosphoric acid solution containing 10 mM KH2PO4 in water (pH adjusted to 3.0), along with acetonitrile in a ratio of 50:50 (v/v). The flow rate employed was set at 1 mL/min while detection occurred at a wavelength of 254 nm."}, "[5]": {"test": "IVIVC prediction based on USP II in vitro absorption data", "parameters": "species or system Male Sprague Dawley rats", "conditions": "predicted through IVIVC from USP II", "method": "as §1"}, "In vivo pharmacokinetics": {"test": "In vivo pharmacokinetics", "parameters": "species or system Male Sprague Dawley rats", "conditions": "plasma, rat", "method": "The animal study was conducted in accordance with the National Research Council’s Guide for the Care and Use of Laboratory Animals and approved by the Ethics Committee of Chengdu University of Traditional Chinese Medicine (Approval Code: 2021-76). All procedures were performed in compliance with relevant regulations and guidelines. Male Sprague Dawley rats weighing 180–220 g were fasted overnight (12 h) with free access to water, then randomly assigned to 4 groups (n = 6). […] Approximately 50 μL of blood samples were collected into EDTA-K2-treated Eppendorf tubes at time points ranging from 0.083, 0.25, 0.5, 1, 2, 4, and 6 to 10 h after dosing. The blood samples were centrifuged at 2000× g and 4 °C for 10 min, followed by collection and storage of the supernatant plasma at −20 °C until analysis. […] A protein precipitation method was employed to pretreat 10 μL plasma with 430 μL acetonitrile, 50 μL internal standard solution (gefitinib), and 10 μL mobile phase. After centrifugation at 10,000× g for 10 min at 4 °C, the supernatant was injected into the apparatus and then separated by a Thermo Hypersil C18 chromatographic column (3 μm, 2.1 mm × 50 mm) at 40 °C. […] Phoenix 8.1 WinNonlin Toolkit (Certara, Princeton, NJ, USA) was employed to conduct the non-compartment model of pharmacokinetic analysis."}, "[6]": {"conditions": "aqueous phase of the duodenal cup"}},
  "data": [
    {"smiles": "CC(=O)N1CCN(c2ccc(OCC3COC(Cn4ccnc4)(c4ccc(Cl)cc4Cl)O3)cc2)CC1", "note": "(centres unmarked) [ketoconazole, Ketoconazole]", "values": [
      {"measurement": "DSAUC (area under the degree of supersaturation over time curve)", "setting": "[1]; Duodenal", "value": 3.715},
      {"measurement": "DSAUC (area under the degree of supersaturation over time curve)", "setting": "[1]; Jejunal", "value": 5.452},
      {"measurement": "major precipitation time", "setting": "[1]; [6]", "value": 19, "unit": "min"},
      {"measurement": "maximum concentration of ketoconazole", "setting": "[1]; [6]", "value": 1049, "unit": "µg/mL"},
      {"measurement": "maximum concentration of ketoconazole", "setting": "[1]; jejunal aqueous phase", "value": 282, "unit": "µg/mL"},
      {"measurement": "pKa, reported value", "setting": "[2]", "value": 6.5},
      {"measurement": "AUC, Prediction", "setting": "[3]", "value": "114,652 h·ng·mL^−1"},
      {"measurement": "Cmax, Prediction", "setting": "[3]", "value": "45,529 ng·mL^−1"},
      {"measurement": "pKa", "setting": "[4]; FaSSIF (biorelevant fluid), read-out: pKa of the fitted pH-solubility function", "value": 6.32},
      {"measurement": "solubility at 24 h", "setting": "[4]; FaSSIF, read-out: CU (concentration of unionized form) of the fitted pH-solubility function", "value": 7.88, "unit": "µg/mL"},
      {"measurement": "AUC, Prediction", "setting": "[5]", "value": "108,727 h·ng·mL^−1"},
      {"measurement": "Cmax, Prediction", "setting": "[5]", "value": "45,702 ng·mL^−1"},
      {"measurement": "bioavailability", "setting": "In vivo pharmacokinetics; male, Sprague Dawley, oral 10 mg/kg vs i.v. 2.5 mg/kg, read-out: absolute bioavailability", "value": 70, "unit": "%"},
      {"measurement": "AUC", "setting": "In vivo pharmacokinetics; male, Sprague Dawley, po, 10 mg/kg, read-out: AUC, Observation", "value": 113, "unit": "µg·h/mL"},
      {"measurement": "Cmax", "setting": "In vivo pharmacokinetics; male, Sprague Dawley, po, 10 mg/kg, read-out: Cmax, Observation", "value": 41.3, "unit": "µg/mL"},
      {"measurement": "AUC, Observation", "setting": "In vivo pharmacokinetics; oral 10 mg/kg ketoconazole", "value": "112,853 h·ng·mL^−1"},
      {"measurement": "Cmax, Observation", "setting": "In vivo pharmacokinetics; oral 10 mg/kg ketoconazole", "value": "41,300 ng·mL^−1"}
    ]}
  ]
}
